# Measurements reported in US9700637B2, “Reaction-based fluorescent probes for detecting zinc” (Massachusetts Institute of Technology, priority 2013, dated 2017).
# “And” between values parts separate entries of the source, which are not always exact repeats. Equal entries are not always repeated.
# Experiments:
# HeLa cells = test: Live cell fluorescence imaging: response to intracellular zinc (ZnPT/TPEN) and stability in cellulo; format: cell-based
# Experimental: FIG. 5 depicts live cell imaging of HeLa cells that were bathed in a 1 μM solution of DA-ZP1-TPP in dye and serum free DMEM media for 30 min at 37° C. and 5% CO2. […] There was minimal fluorescent signal from DA-ZP1-TPP, consistent with the quenched fluorescent form of the sensor (top, right).
# FIG. 24 depicts fluorescence images of live HeLa cells. HeLa cells were pretreated with a 1 μM solution of DA-ZP1-TPP in dye- and serum-free medium for 30 min (37° C., 5% CO2). […] The signal from MitoTracker Red (c) correlates well with the signal from the zinc-bound sensor (d). Pearson's r=0.64±0.1 (n=18). […]
# We used HeLa cells as a model system to evaluate the ability of DA-ZP1-TPP to target mitochondria and respond to changes in intracellular zinc levels. Live HeLa cells were pretreated with medium containing 1 μM DA-ZP1-TPP and 250 nM MitoTracker Red for 30 min (37° C., 5% CO2) prior to imaging (FIG. 24). […] Over a two-hour period, the fluorescence intensity from the sensor remained constant, implying that the acetylated form is stable against intracellular esterases (FIG. 24e). […] Addition of 100 μM TPEN attenuated the fluorescence signal by ˜2.4-fold (FIG. 24f). […] We anticipate that this strategy will be applicable to related families of fluorophores. […]
# [1] = Zinc-induced fluorescence response in cuvette (turn-on, quantum yield); format: physicochemical; conditions: for zinc-induced fluorescence response (turn-on): excess ZnCl2
# Experimental: FIG. 2 depicts the normalized fluorescent spectra of DA-ZP1-TPP (also referred to as Ac2-ZP1-TPP) and ZP1-TPP in the absence (dashed line) and presence (solid line) of excess ZnCl2. Inset: The y-axis is magnified to aid in the visualization of the ˜7-fold “turn-on” of ZP1-TPP.
# FIG. 20 depicts Zn(II)-dependent fluorescence signal enhancement of DA-ZP1-TPP. (a) Normalized fluorescence spectra of a 1 μM solution of DA-ZP1-TPP, in 50 mM PIPES buffer (pH 7) with 1 mM EDTA, 2 mM CaCl2, and 100 mM KCl, upon increasing concentrations of free zinc ions. (b) Zinc binding isotherm for the data in (a), normalized to the fluorescence signal under zinc saturating conditions (λex=495 nm).
# Spectra were acquired in 50 mM PIPES (pH 7) with 100 mM KCl. For this titration, a single excitation wavelength of λex=485 nm was used.
# The diacetylated version of ZP1-TPP, designated DA-ZP1-TPP, was readily prepared by reacting ZP1-TPP with acetic anhydride overnight at room temperature. Over the course of the reaction, the mixture turned from a dark, salmon-colored solution to a light, nearly colorless liquid, which was purified by HPLC. […] Addition of nanomolar concentrations of zinc ions results in a large increase in both the absorption λabs-Zn=510 nm) and fluorescence (λem-Zn=529 nm, FIG. 20a) spectral bands of DA-ZP1-TPP. These optical changes combine to yield a >140-fold increase in the fluorescence signal (ΦZn=0.75±0.03, FIG. 20). […] Whether the mode of zinc-mediated ester hydrolysis proceeds by internal or external hydroxide attack remains to be determined. […] Addition of a chelator (EDTA) attenuates the fluorescence signal ˜5-fold (Φ=0.15±0.02) in the cuvette (FIG. 22) with a concomitant redshift in the absorption spectrum (λabs=522 nm). Reversibility of the fluorescence signal is an important feature for zinc-responsive probes, because it allows confirmation that the observed increase in fluorescence signal is due to Zn(II) and not the result of an artifact. […]
# Using DA-ZP1-A3 as a model system, we assessed its photophysical and zinc-binding properties (FIG. 26). […]
"period over which signal intensity was stable in cellulo (HeLa cells; live HeLa, 1 μM, no added zinc) [h]",Compound,"increase in fluorescence intensity on ZnPT (HeLa cells; live HeLa, 1 μM probe, 50 μM ZnPT)","attenuation of fluorescence signal by TPEN (HeLa cells; live HeLa, 100 μM TPEN after 50 μM ZnPT) [fold]",attenuation of fluorescence signal by EDTA ([1]; chelator (EDTA) added after zinc) [fold],zinc-induced fluorescence response (turn-on) [1] [fold],response to changing intracellular zinc levels (HeLa cells; live HeLa cells)
2,CC(=O)Oc1c(Cl)cc2c(c1CN(Cc1ccccn1)Cc1ccccn1)Oc1c(cc(Cl)c(OC(C)=O)c1CN(Cc1ccccn1)Cc1ccccn1)C21OC(=O)c2ccc(C(=O)NCC[P+](c3ccccc3)(c3ccccc3)c3ccccc3)cc21 [DA-ZP1-TPP],~12.1 fold and ~12 fold,~2.4,~5,> 140,–
–,O=C(NCC[P+](c1ccccc1)(c1ccccc1)c1ccccc1)c1ccc2c(c1)C1(OC2=O)c2cc(Cl)c(O)c(CN(Cc3ccccn3)Cc3ccccn3)c2Oc2c1cc(Cl)c(O)c2CN(Cc1ccccn1)Cc1ccccn1 [ZP1-TPP],–,–,–,~7,did not respond significantly to changing intracellular zinc levels
